Patent US7119072B2, “Macrocyclic peptides active against the hepatitis C virus” (Boehringer Ingelheim (Canada) Ltd., priority 2002, dated 2006)

Experiment: In vivo oral absorption screen / pharmacokinetic assay in the rat
Conditions: male, Sprague Dawley, rat plasma, dose of 5 mg/kg in Methocel:Tween20 (0.5%:0.3%), read-out: area under the curve (AUC)
Text: More explicitly, the following assay, an in vivo oral absorption screen, was used to determine plasma levels of test compounds in a rat after oral administration: The selection of compounds to be pooled into a “cassette” was based on their structural similarity and physicochemical properties. A solid phase extraction method applicable to all the selected compounds was established. Based on the initial testing where each compound was spiked into rat plasma and run through HPLC or HPLC/MS at a concentration of 0.5 μM, the retention time, ionic mass, and the possible separation among compounds by HPLC and/or HPLC/MS were used as basis for pooling 3–4 compounds into one “cassette”. Each “cassette” contains 3–4 compounds at 5 or 4 mg/kg for each compound. The cassettes were prepared as an oral suspension in 0.5% aqueous methylcellulose and 0.3% of polyoxyethylene (20) sorbiton monooleate (Tween-80). The dosing volume was 10 ml/kg via oral gavage. Male Sprague Dawley rats were fasted overnight in individual cages, with access to aqueous 10% dextrose. Two rats were dosed with each “cassette”. Plasma samples (˜1 ml) were collected at 1 and 2 h post-dosing from the 2 rats and pooled for extraction and analysis. […] Samples were analyzed by HPLC and HPLC/MS for comparison purpose. […]

SMILES | AUC [µM·h]
COc1ccc2c(O[C@@H]3C[C@H]4C(=O)N[C@]5(C(=O)O)C[C@H]5/C=C\CCCCC[C@H](NC(=O)OC5CCCC5)C(=O)N4C3)cc(-c3csc(NC4CCCCC4)n3)nc2c1 [Compound 102] | 18
COc1ccc2c(O[C@@H]3C[C@H]4C(=O)N[C@]5(C(=O)O)C[C@H]5/C=C\CCCCC[C@H](NC(=O)OC5CCCC5)C(=O)N4C3)cc(-c3csc(NC4CCCC4)n3)nc2c1 [Compound 101] | 16
